According to doi:10.1101/2023.12.04.569845, “Identification of 4-(6-((2-methoxyphenyl)amino)pyrazin-2-yl)benzoic acids as CSNK2A inhibitors with antiviral activity and improved selectivity over PIM3” (bioRxiv, 2023):
Where two headings read alike, the source gives them in different places. One block for each compound: values may come before it.

Tests used:
Assay in all cases: biochemical
Set-up in all cases: Thermal shift (DSF, SYPRO Orange) Tm shift of recombinant kinase domains at 10 uM compound
SRPK1 = SRPK1 (Homo sapiens, UniProt Q96SB4)
p38a = molecular target: T1, p38a (Homo sapiens, UniProt Q16539)
T1 construct: gene MAPK14

CAMK1D = CAMK1D (Homo sapiens, UniProt Q8IU85)
LOK = molecular target: T2, LOK (Homo sapiens, UniProt O94804)
T2 construct: gene STK10

MELK = MELK (Homo sapiens, UniProt Q14680)
DRAK1 = molecular target: T3, DRAK1 (Homo sapiens, UniProt Q9UEE5)
T3 construct: gene STK17A
T3 sequence (Q9UEE5 1-414): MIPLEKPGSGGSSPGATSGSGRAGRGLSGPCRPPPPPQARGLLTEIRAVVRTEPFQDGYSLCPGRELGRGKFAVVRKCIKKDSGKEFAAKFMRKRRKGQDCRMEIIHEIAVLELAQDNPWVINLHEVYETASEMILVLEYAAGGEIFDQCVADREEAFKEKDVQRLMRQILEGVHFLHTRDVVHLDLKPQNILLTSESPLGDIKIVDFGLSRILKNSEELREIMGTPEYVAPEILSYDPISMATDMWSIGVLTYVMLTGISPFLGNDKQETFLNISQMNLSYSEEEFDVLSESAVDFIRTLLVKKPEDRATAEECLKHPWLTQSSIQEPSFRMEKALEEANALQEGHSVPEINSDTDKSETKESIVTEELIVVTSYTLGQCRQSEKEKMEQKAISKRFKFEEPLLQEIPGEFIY

GPRK5 = molecular target: T4, GPRK5 (Homo sapiens, UniProt P34947)
T4 construct: gene GRK5

MST1 = molecular target: T5, MST1 (Homo sapiens, UniProt Q13043)
T5 construct: gene STK4
T5 sequence (Q13043 1-487): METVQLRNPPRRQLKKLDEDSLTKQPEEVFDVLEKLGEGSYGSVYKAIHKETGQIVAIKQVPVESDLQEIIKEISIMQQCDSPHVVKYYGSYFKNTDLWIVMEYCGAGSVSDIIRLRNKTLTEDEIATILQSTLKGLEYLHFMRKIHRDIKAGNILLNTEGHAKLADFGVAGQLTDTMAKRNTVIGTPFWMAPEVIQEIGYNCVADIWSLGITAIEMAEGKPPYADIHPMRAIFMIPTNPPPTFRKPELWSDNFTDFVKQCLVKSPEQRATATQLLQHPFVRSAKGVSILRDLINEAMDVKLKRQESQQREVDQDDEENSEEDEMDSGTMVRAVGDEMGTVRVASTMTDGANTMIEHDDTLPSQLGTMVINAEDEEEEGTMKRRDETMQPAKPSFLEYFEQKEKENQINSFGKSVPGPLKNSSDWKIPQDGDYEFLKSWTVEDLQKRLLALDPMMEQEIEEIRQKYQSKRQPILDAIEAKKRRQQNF

BRPF1 = molecular target: T6, BRPF1 (Homo sapiens, UniProt P55201)
T6 sequence (P55201 1-1214): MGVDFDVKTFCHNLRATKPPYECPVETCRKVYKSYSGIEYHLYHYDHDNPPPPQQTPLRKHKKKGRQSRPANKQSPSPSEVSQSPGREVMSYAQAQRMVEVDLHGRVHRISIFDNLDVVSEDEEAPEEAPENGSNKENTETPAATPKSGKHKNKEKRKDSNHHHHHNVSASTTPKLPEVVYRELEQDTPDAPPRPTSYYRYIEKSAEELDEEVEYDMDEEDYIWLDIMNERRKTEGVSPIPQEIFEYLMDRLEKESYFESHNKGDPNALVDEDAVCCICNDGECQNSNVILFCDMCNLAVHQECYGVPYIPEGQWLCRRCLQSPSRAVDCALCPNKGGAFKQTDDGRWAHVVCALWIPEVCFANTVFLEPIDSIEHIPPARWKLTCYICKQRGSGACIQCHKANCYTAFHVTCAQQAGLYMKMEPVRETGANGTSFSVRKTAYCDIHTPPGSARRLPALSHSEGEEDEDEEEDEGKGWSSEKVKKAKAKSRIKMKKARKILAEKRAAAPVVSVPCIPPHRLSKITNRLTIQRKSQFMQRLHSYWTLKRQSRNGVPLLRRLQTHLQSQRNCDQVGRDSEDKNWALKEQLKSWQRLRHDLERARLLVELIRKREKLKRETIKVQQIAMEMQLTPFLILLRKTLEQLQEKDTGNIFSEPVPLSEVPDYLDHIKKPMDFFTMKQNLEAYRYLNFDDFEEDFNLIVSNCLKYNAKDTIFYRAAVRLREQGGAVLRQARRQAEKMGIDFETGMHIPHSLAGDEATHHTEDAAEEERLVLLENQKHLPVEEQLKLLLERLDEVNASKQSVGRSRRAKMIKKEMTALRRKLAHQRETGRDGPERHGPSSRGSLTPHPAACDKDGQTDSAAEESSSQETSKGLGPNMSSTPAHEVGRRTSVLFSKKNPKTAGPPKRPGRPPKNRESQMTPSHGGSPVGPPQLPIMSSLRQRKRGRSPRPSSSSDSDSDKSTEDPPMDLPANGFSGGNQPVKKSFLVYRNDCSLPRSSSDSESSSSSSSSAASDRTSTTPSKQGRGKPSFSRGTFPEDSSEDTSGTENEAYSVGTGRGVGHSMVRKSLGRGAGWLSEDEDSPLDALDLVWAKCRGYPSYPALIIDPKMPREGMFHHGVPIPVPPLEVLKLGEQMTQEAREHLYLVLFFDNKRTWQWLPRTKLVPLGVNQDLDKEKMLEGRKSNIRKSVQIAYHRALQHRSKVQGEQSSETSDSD

Chain of MELK (Q14680 whole entry): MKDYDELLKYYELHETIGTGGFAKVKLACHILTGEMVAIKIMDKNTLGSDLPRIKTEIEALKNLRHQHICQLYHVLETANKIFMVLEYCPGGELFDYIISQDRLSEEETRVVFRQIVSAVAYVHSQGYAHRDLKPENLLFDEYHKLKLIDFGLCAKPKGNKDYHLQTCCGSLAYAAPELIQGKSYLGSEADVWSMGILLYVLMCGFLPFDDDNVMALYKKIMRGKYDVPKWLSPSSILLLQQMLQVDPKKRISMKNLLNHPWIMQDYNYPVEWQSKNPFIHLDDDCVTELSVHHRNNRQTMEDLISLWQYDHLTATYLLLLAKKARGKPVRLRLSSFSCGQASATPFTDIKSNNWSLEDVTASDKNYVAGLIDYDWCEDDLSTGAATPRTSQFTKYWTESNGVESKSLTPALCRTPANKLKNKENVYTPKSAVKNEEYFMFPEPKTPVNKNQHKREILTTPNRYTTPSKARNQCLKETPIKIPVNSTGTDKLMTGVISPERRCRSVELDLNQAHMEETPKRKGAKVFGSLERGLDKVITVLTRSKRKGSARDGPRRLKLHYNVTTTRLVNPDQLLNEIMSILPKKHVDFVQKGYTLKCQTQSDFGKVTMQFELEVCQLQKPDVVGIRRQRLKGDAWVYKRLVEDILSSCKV
Chain of CAMK1D (Q8IU85 whole entry): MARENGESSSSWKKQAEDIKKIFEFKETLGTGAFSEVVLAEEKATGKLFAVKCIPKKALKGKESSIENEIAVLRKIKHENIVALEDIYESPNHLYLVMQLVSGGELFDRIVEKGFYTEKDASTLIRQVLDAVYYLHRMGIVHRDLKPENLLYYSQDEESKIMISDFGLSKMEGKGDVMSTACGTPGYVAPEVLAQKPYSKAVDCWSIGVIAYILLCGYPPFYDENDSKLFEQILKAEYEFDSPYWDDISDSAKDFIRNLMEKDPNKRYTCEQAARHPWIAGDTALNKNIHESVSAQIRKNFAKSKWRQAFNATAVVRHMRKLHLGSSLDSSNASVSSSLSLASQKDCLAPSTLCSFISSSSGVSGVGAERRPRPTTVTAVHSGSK
T2 sequence (O94804 whole entry): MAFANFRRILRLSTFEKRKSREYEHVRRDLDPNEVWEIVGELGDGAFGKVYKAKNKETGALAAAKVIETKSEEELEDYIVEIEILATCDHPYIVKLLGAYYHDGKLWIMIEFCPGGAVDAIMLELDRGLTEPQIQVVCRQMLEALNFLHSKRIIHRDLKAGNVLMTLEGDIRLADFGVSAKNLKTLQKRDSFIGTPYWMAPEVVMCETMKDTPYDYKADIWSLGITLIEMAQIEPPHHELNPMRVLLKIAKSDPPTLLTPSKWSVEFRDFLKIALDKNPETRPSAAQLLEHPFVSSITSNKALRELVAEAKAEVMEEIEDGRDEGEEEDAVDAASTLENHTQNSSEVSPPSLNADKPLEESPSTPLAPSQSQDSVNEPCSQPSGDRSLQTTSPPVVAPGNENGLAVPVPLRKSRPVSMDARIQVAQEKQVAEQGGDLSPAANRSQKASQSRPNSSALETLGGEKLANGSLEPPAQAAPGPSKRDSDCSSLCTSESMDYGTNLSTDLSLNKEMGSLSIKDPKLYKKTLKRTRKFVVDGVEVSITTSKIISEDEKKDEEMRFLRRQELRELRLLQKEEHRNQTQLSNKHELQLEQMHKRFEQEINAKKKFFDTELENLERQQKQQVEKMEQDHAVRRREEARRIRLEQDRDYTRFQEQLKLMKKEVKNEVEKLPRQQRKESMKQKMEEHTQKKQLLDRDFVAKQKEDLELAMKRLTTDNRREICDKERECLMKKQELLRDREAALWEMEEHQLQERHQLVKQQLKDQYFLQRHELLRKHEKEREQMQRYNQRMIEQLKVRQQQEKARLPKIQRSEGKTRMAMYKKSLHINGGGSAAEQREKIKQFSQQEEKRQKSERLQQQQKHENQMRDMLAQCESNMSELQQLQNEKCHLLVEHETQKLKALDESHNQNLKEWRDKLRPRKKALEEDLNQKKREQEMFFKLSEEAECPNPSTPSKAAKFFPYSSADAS
T1 sequence (Q16539 whole entry): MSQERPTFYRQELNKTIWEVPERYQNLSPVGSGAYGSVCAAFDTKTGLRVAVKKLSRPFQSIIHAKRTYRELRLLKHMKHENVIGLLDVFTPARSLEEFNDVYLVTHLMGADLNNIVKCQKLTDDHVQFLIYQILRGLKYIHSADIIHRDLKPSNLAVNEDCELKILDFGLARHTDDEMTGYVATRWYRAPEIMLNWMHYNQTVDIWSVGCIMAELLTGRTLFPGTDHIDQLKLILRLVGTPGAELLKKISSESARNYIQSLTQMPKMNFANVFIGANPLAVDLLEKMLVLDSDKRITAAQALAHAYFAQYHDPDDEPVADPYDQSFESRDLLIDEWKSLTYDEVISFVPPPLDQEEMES
T4 sequence (P34947 whole entry): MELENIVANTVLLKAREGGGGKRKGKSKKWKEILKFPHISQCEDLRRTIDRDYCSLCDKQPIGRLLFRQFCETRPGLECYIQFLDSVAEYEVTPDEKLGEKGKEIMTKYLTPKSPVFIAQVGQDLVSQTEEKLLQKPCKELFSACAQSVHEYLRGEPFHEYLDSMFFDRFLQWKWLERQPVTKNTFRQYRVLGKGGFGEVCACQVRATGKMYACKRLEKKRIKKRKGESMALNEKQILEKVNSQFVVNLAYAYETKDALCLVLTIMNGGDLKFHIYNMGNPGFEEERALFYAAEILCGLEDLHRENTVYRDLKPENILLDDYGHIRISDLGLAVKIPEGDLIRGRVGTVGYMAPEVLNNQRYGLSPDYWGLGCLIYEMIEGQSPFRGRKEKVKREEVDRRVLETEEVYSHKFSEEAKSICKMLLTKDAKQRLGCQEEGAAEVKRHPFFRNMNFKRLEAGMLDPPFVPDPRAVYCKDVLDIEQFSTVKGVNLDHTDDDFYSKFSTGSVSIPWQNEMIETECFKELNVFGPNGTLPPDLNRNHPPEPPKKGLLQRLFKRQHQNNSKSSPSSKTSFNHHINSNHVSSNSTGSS
Chain of SRPK1 (Q96SB4 whole entry): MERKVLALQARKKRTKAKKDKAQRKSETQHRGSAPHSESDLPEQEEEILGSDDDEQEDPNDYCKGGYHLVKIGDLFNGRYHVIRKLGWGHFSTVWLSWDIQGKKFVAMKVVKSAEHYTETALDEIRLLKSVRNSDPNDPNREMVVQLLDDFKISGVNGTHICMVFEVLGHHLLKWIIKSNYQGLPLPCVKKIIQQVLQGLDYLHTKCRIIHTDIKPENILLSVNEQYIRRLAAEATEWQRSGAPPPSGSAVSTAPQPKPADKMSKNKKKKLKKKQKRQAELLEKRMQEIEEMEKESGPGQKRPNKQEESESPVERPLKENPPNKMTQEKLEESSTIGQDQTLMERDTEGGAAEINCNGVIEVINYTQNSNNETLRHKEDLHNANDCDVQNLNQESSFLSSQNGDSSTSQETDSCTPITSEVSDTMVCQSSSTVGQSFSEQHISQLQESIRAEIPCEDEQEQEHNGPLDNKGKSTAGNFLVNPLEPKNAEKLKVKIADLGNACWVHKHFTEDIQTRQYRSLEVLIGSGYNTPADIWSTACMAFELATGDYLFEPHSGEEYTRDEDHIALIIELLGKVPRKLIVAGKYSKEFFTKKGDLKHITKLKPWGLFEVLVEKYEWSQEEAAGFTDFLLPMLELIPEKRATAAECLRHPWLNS

ΔTm at 10 µM (SRPK1; read-out: 7c): 3 °C | ΔTm at 10 µM (p38a; read-out: 7c): -1 °C | ΔTm at 10 µM (CAMK1D; read-out: 7c): 0 °C | ΔTm at 10 µM (LOK; read-out: 7c): 4 °C | ΔTm at 10 µM (MELK; read-out: 7c): 4 °C | ΔTm at 10 µM (DRAK1; read-out: 7c): 4 °C | ΔTm at 10 µM (GPRK5; read-out: 7c): 4 °C | ΔTm at 10 µM (MST1; read-out: 7c): 1 °C | ΔTm at 10 µM (BRPF1; read-out: 7c): 0 °C
Compound: COc1ccc(OC(C)C)cc1Nc1cncc(-c2ccc(C(=O)O)cc2)n1 [7c]

ΔTm at 10 µM (SRPK1; read-out: 6c): 6 °C | ΔTm at 10 µM (p38a; read-out: 6c): -3 °C | ΔTm at 10 µM (CAMK1D; read-out: 6c): 0 °C | ΔTm at 10 µM (LOK; read-out: 6c): 4 °C | ΔTm at 10 µM (MELK; read-out: 6c): 4 °C | ΔTm at 10 µM (DRAK1; read-out: 6c): 6 °C | ΔTm at 10 µM (GPRK5; read-out: 6c): 4 °C | ΔTm at 10 µM (MST1; read-out: 6c): 1 °C | ΔTm at 10 µM (BRPF1; read-out: 6c): -1 °C
Compound: CC(C)Oc1ccc2ccn(-c3cncc(-c4ccc(C(=O)O)cc4)n3)c2c1 [6c]

ΔTm at 10 µM (SRPK1; read-out: 2): 6 °C | ΔTm at 10 µM (p38a; read-out: 2): -1 °C | ΔTm at 10 µM (CAMK1D; read-out: 2): 2 °C | ΔTm at 10 µM (LOK; read-out: 2): 8 °C | ΔTm at 10 µM (MELK; read-out: 2): 6 °C | ΔTm at 10 µM (DRAK1; read-out: 2): 8 °C | ΔTm at 10 µM (GPRK5; read-out: 2): 6 °C | ΔTm at 10 µM (MST1; read-out: 2): 3 °C | ΔTm at 10 µM (BRPF1; read-out: 2): 2 °C
Compound: CC(C)Nc1ccc2cnn(-c3cncc(-c4ccc(C(=O)O)cc4)n3)c2c1 [compound 2, 2]
